Test results: the supplement of paper PMC10307832

Columns and labels:
Experiment in all cases: relative viability (nuclei count vs DMSO), 5 days (fraction); higher = more cells survive
[1] = compound: C1=CC2=NC=CN=C2C=C1/C=C/3\C(=O)NC(=O)S3 + CC(C)C[C@H](NC(=O)[C@H](Cc1ccccc1)NC(=O)c1cnccn1)B(O)O [Bortezomib] (partner 0.002 µM)
Method in brief: (§1)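 Lung cancer cell lines in 1536-well plates were dosed by pin tool the day after seeding, either with one drug alone or with a fixed anchor-drug dose plus five library-drug doses (not always all listed) in √10 steps. After 5 days, cells were fixed and their nuclei stained in one step (final 0.05% Triton X-100, 1% formaldehyde, 1 ug/ml Hoechst), then counted on 4× images. Relative viability is the nuclei count in treated wells divided by that in vehicle wells. Values are medians of duplicate plates.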

[2] = compound: C1=CC2=NC=CN=C2C=C1/C=C/3\C(=O)NC(=O)S3 + CCNC(=O)c1noc(-c2cc(C(C)C)c(O)cc2O)c1-c1ccc(CN2CCOCC2)cc1 [Luminespib] (partner 0.01 µM)
Method in brief: as §1

[3] = compound: C1=CC2=NC=CN=C2C=C1/C=C/3\C(=O)NC(=O)S3 + Cc1nc(Nc2ncc(C(=O)Nc3c(C)cccc3Cl)s2)cc(N2CCN(CCO)CC2)n1 [Dasatinib] (partner 0.075 µM)
Method in brief: as §1

BGJ398 + Lapatinib = compound: CCN1CCN(c2ccc(Nc3cc(N(C)C(=O)Nc4c(Cl)c(OC)cc(OC)c4Cl)ncn3)cc2)CC1 [BGJ398] + CS(=O)(=O)CCNCc1ccc(-c2ccc3ncnc(Nc4ccc(OCc5cccc(F)c5)c(Cl)c4)c3c2)o1 [Lapatinib] (partner 2 µM)
Method in brief: as §1

## UMC-11
[1]; first compound 0.02 µM
  relative viability: 0.869
[1]; first compound 0.06325 µM
  relative viability: 0.965
[1]; first compound 0.2 µM
  relative viability: 0.523
[1]; first compound 0.6325 µM
  relative viability: 0.591
[1]; first compound 2 µM
  relative viability: 0.997
[2]; first compound 0.02 µM
  relative viability: 0.992
[2]; first compound 0.06325 µM
  relative viability: 1.11
[2]; first compound 0.2 µM
  relative viability: 1.05
[2]; first compound 0.6325 µM
  relative viability: 0.956
[2]; first compound 2 µM
  relative viability: 1.16
[3]; first compound 0.02 µM
  relative viability: 0.467
[3]; first compound 0.06325 µM
  relative viability: 0.523
[3]; first compound 0.2 µM
  relative viability: 0.427
[3]; first compound 0.6325 µM
  relative viability: 0.489
[3]; first compound 2 µM
  relative viability: 0.519
BGJ398 + Lapatinib; first compound 0.01 µM
  relative viability: 1.14
BGJ398 + Lapatinib; first compound 0.03162 µM
  relative viability: 0.987
BGJ398 + Lapatinib; first compound 0.1 µM
  relative viability: 0.991
BGJ398 + Lapatinib; first compound 0.3162 µM
  relative viability: 0.924
BGJ398 + Lapatinib; first compound 1 µM
  relative viability: 0.736
